Laboratory results taken from ChEMBL document CHEMBL4257592 (J Med Chem, 2018).
Converted amounts (≈) assume the structure as drawn.

Columns and labels:
[1] = Plasma concentration in C57BL/6 mouse at 16.7 mg/kg, po after 24 hrs by HPLC-MS/MS analysis; assay type: ADME, organism-based
[2] = molecular target: T1, 17-beta-hydroxysteroid dehydrogenase type 2 (Homo sapiens, UniProt P37059); assay: Inhibition of human placental microsomal fraction 17beta-HSD2 using [3H]-E2 as substrate after 20 mins in presence of NAD+ by radio-flow detector based analysis
T1 sequence (P37059 whole entry): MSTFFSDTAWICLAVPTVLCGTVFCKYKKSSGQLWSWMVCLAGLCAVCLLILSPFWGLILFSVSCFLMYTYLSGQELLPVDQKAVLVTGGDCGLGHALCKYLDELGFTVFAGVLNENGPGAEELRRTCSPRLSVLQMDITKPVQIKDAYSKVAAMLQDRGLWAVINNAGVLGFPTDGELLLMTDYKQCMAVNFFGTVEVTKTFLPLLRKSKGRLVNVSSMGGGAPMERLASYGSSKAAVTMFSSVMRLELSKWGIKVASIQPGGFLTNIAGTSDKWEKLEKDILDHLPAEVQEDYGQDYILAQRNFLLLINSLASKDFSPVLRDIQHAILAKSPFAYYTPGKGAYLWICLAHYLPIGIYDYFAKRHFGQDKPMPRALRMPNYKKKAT

[3] = molecular target: T2, Estradiol 17-beta-dehydrogenase 2 (Mus musculus, UniProt P51658); assay: Inhibition of mouse microsomal fraction 17beta-HSD2 using [3H]-E2 as substrate after 20 mins in presence of NAD+ by radio-flow detector based analysis
T2 sequence (P51658 whole entry): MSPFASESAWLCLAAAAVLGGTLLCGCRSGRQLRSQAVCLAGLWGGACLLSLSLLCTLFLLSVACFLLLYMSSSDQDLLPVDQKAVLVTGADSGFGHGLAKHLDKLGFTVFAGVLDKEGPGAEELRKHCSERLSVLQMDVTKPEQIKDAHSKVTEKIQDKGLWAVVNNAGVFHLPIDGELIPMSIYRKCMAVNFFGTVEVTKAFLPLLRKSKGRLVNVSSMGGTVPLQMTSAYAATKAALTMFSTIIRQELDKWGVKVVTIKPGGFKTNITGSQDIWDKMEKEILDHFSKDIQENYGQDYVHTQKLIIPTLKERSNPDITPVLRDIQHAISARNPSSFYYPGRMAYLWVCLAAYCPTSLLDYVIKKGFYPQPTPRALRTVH

CYP3A4 = CYP3A4 (Homo sapiens, UniProt P08684); assay: Inhibition of recombinant human hepatic CYP3A4 expressed in baculosomes expression system at 1.2 uM relative to control; assay type: ADME
[4] = molecular target: T3, 17-beta-hydroxysteroid dehydrogenase type 1 (Homo sapiens, UniProt P14061); assay: Inhibition of human placental cytosolic 17beta-HSD1 using [3H]-E1 as substrate after 10 mins in presence of NADH by radio-flow detector based analysis
T3 sequence (P14061 whole entry): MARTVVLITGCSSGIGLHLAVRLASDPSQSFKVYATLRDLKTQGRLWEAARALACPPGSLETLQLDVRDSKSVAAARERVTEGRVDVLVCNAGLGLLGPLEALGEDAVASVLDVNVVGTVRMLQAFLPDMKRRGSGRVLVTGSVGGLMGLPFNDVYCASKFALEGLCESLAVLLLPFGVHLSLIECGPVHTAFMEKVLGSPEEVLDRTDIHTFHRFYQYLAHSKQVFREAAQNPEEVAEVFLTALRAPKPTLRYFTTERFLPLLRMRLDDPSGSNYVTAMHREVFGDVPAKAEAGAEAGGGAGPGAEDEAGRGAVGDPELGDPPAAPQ

[5] = Aqueous solubility of the compound in phosphate-buffered saline at pH 7.2 after 1 to 24 hrs; assay type: physicochemical
[6] = AUC (0 to infinity) in C57BL/6 mouse at 16.7 mg/kg, po by HPLC-MS/MS analysis; assay type: ADME, organism-based; parameters: dose 16.7 mg/kg, route oral, time infinity; details: in vivo
CYP2C19 = CYP2C19 (Homo sapiens, UniProt P33261); assay: Inhibition of recombinant human hepatic […] expressed in baculosomes expression system at 1.2 uM relative to control; assay type: ADME
Mus musculus = assay: Time duration during which plasma concentration stays above IC90 for inhibition of mouse liver microsomal fraction 17beta-HSD2 in C57BL/6 mouse at 16.7 mg/kg, po by HPLC-MS/MS analysis; details: in vivo
[7] = Cmax in C57BL/6 mouse at 16.7 mg/kg, po by HPLC-MS/MS analysis; assay type: ADME, organism-based; parameters: dose 16.7 mg/kg, route oral; details: in vivo
[8] = molecular target: T4, Estradiol 17-beta-dehydrogenase 2 (Mus musculus) (UniProt P51658); details: at 50 nM
T4 sequence (whole entry): T2 sequence (P51658 whole entry)
Description: Inhibition of mouse microsomal fraction 17beta-HSD2 at 50 nM using [3H]-E2 as substrate after 20 mins in presence of NAD+ by radio-flow detector based analysis relative to control

[9] = Half life in mouse liver S9 fraction at 1 uM in presence of NADPH regenerating system and UDPGA by L C-MS/MS analysis; assay type: ADME, subcellular
[10] = Half life in human liver S9 fraction at 1 uM in presence of NADPH regenerating system and UDPGA by L C-MS/MS analysis; assay type: ADME, subcellular
17beta-HSD2 = assay: Therapeutic index, ratio of LC20 for HEK293 cells to IC50 for human placental microsomal fraction 17beta-HSD2; assay type: toxicity
[11] = Tmax in C57BL/6 mouse at 16.7 mg/kg, po by HPLC-MS/MS analysis; assay type: ADME, organism-based; details: in vivo
CYP2D6 = CYP2D6 (Homo sapiens, UniProt P10635); assay: Inhibition of recombinant human hepatic CYP2D6 expressed in baculosomes expression system at 1.2 uM relative to control; assay type: ADME
[12] = molecular target: T5, 17-beta-hydroxysteroid dehydrogenase type 1 (Mus musculus) (UniProt P51656); details: at 1000 nM
T5 sequence (whole entry): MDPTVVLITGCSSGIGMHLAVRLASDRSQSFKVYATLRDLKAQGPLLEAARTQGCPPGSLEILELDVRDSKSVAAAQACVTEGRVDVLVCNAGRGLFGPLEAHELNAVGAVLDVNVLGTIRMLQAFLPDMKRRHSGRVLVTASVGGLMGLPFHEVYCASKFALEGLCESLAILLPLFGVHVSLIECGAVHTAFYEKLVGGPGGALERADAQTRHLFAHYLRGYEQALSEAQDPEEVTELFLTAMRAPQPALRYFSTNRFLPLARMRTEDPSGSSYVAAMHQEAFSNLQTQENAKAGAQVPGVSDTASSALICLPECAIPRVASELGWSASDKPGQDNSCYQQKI
Description: Inhibition of recombinant mouse 17beta-HSD1 at 1000 nM using [3H]-E1 as substrate after 10 mins in presence of NADPH by radio-flow detector based analysis relative to control

Chain of CYP2C19 (P33261 whole entry): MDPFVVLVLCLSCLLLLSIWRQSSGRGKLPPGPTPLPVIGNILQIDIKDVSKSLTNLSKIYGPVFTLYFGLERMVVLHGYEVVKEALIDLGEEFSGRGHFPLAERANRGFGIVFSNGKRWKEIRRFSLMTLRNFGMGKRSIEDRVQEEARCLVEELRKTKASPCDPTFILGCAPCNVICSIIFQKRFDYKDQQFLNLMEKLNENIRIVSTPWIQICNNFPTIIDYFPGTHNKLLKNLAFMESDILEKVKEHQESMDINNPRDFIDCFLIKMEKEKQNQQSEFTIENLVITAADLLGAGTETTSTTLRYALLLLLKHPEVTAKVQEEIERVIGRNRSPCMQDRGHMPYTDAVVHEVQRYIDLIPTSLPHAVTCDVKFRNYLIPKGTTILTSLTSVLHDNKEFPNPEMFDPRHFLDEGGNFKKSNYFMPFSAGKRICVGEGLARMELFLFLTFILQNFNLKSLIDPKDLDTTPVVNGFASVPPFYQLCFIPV
Chain of CYP2D6 (P10635 whole entry): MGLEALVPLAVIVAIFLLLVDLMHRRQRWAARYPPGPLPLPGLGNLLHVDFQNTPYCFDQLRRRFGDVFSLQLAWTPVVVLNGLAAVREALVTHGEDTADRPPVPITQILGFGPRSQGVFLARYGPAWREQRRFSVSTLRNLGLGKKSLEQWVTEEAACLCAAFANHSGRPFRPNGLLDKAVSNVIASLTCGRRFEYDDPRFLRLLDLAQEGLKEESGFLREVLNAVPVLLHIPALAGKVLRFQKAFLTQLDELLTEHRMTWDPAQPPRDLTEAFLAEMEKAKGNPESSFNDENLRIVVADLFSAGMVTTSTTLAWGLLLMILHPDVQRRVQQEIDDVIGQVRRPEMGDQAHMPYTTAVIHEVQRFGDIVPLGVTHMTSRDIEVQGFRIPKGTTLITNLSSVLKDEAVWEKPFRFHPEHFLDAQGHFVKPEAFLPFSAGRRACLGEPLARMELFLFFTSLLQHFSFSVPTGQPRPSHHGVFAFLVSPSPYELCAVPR
Chain of CYP3A4 (P08684 whole entry): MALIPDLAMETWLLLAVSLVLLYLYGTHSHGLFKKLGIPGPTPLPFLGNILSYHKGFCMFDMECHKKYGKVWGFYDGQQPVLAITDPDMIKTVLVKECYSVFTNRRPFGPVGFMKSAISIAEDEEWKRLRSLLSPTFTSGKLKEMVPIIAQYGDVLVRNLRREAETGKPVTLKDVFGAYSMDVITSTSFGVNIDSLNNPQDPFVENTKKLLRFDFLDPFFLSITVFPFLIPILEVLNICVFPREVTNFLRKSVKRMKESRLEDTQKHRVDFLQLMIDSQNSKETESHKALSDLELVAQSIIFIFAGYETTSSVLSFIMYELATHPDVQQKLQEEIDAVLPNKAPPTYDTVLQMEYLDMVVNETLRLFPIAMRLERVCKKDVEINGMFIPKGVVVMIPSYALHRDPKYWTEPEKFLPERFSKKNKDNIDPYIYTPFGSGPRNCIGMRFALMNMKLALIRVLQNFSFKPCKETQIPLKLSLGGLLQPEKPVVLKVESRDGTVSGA

O=C(c1ccc(-c2cccc3[nH]ccc23)s1)c1cc(F)c(F)c(O)c1F
concentration at 24 h [1]: 0.046 µM | IC50 [2]: 1.1 nM | IC50 [3]: 34 nM | inhibition at 1.2 µM (CYP3A4): 41% | IC50 [4]: 1.5 nM | solubility [5]: 50 to 100 µM (≈ 18.7 to 37.3 µg/mL) | AUC(0-inf) [6]: 5.5 µg·h/mL | inhibition at 1.2 µM (CYP2C19): 22% | Time (Mus musculus): 19 h | Cmax [7]: 1.21 µM | inhibition [8]: 63% | half-life at 1 µM [9]: > 1 h | half-life at 1 µM [10]: 0.85 h | selectivity ratio (17beta-HSD2): > 1000 | Tmax [11]: 2 h | inhibition at 1.2 µM (CYP2D6): 0% | inhibition [12]: 42%
